The first assay concerns the target T1, 14-3-3ζ/Tau pS2 peptide interaction (Homo sapiens, UniProt P63104).
T1 construct: made in house; host or cells: NiCo21 (DE3) E. coli
T1 sequence (P63104 1-245): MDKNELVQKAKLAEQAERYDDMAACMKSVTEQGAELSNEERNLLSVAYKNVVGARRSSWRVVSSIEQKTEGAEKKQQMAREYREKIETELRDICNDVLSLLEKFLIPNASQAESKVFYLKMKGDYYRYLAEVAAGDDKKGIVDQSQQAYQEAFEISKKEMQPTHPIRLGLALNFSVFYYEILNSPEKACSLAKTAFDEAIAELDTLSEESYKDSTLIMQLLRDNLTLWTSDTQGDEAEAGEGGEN
The assay is described as follows: Fluorescence anisotropy 14-3-3ζ titration in the presence of 250 μM compound and Tau pS2 peptide. The format is binding. The note with it: 250 μM compound; apparent KD compared to internal DMSO reference. The procedure:
On the other hand, the PPI stabilizing potency of series 1 compounds was highly dependent on the position and chemical property of the substituent. […] The compound screen for these compounds was further complemented by 14-3-3ζ titration assays in the presence of a constant concentration of compound (250 μM) and Tau pS2 peptide (10 nM) (Fig. 3c, ESI ^† Fig. S6).
This statement is strengthened by the diminished stabilizing activity when shifting the more polar chloro substituent from the para (14) to the ortho (5) to the meta position (8), respectively. […]
chromatography (HisTrap high performance cartridges, Cytiva). Typically two 5 mL columns were used for a 2 L culture in which the lysate was loaded on the column, washed with 10 CV wash buffer (50 mM Hepes, pH 8.0, 300 mM NaCl, 25 mM imidazole, 2 mM βME), and eluted with several fractions (2-4 CV) of elution buffer (50 mM Hepes, pH 8.0, 300 mM NaCl, 250 mM imidazole, 2 mM βME). Fractions containing the 14-3-3 protein were combined and dialyzed into 25 mM HEPES pH 8.0, 200 mM NaCl, 10 mM MgCl2, 2 mM βME, followed by dialysis into 25 mM HEPES, 100 mM NaCl, 10 mM MgCl2, 500 μM TCEP (adjusted to pH 8.0). Dialyzed protein was concentrated to ∼40 mg/mL, analyzed by Q -Tof LC/MS, and aliquots were flash -frozen for storage at −80 °C. For 14 -3-3σ∆c, 1 mg TEV per 100 mg purified protein was added to the dialysis to remove the purification tag. The cleaved sample was then again loaded on a 10 mL Ni-NTA column to separate the cleaved product from the expression tag and residual uncleaved protein. The flowthrough was loade d on a Superdex 75 pg 16/60 size exclusion column (GE Life Sciences) using 25 mM HEPES, 100 mM NaCl, 10 mM MgCl2, 500 μM TCEP (adjusted to pH = 8.0) as running buffer. Fractions containing the 14 -3-3 protein were pooled and concentrated to ∼60 mg/mL, analyzed Q -Tof LC/MS, and aliquots were flash -frozen for storage at −80°C.
Fluorescence Anisotropy – compound titration
Compound titration assays were performed by titrating compounds (in 1% DMSO, starting at 500 μM) in a 2-fold dilution series to preformed complex of fluorescein -labeled Tau pS2 (10 nM) and 14 -3-3ζ (100 nM) (which represents approximately 20% bound Tau pS2 peptide to 14 -3-3ζ to allow further complex formation by addition of fragments 1) in FA buffer (10 mM HEPES pH 7.4, 150 mM NaCl, 50 µM TCEP, 0.1% (v/v) Tween20, 0.1% (w/v) BSA). Dilution series were made in polystyrene low -volume 384 -well plates (Corning #4514, Black Round Bottom). Measurements were performed directly after plate preparation, using a Tecan SPARK plate reader at room temperature ( λex: 485±20 nm; λem: 535±25 nm; mirror: automatic; flashes: 30; settle time: 1 ms; gain: optimal; Z -position: calculated from well). Wells containing only fluorescein labelled peptide were used to set as G -factor calibrated from these wells. All data were analyzed using GraphPad Prism (10.0.1) and fitted with a four -parameter logistic model (4PL) to determine binding affinities (dissociation constant, KD). All data shown is background corrected for the signal without 14 -3-3ζ and the mean and standard deviation of technical duplicate is plotted, assay performed in a scientific duplicate for hit compounds.
Fluorescence Anisotropy – 14-3-3 titrations in the presence of compound To characterize the affinity of the Tau peptides for 14-3-3 in the presence of compound, 14-3-3ζ or γ was titrated in a 2-fold dilution series starting at 400 (for the 14-3-3ζ titrations to Tau pS2) or 800 (for the 14-3-3γ titrations to Tau pS214 or pS324) µM. 14-3-3 was added to 10 nM of fluorescein-labeled peptide (Tau pS2, Tau pS214 or Tau pS324) in the presence of 250 µM compound (1% DMSO). The assays were performed in a similar way as described above. Data shown is the average and standard deviation of a technical duplicate, top plateau corrected where needed, assay performed in a scientific duplicate.
Fluorescence Anisotropy – peptide screen […]
On to `CCc1ccc(-c2nccn2-c2ccc(C=O)c(Br)c2)cc1` [Compound 18], for which the “SF250μM (stabilization factor)” value is on record as 37.

`O=Cc1ccc(-n2ccnc2-c2ccc(OC(F)(F)F)cc2)cc1Br` [Compound 21]: the “SF250μM (stabilization factor)” value is on record as 11.

As for `O=Cc1ccc(-n2ccnc2-c2ccc(I)cc2)cc1Br` [Compound 15], the “SF250μM (stabilization factor)” value is on record as 3.1.

`Cc1cccc(-c2nccn2-c2ccc(C=O)c(Br)c2)c1` [Compound 6]: the “SF250μM (stabilization factor)” value is listed as 10.

Take `O=Cc1ccc(-n2ccnc2-c2ccc(Cl)cc2)cc1Br` [Compound 14]: the “SF250μM (stabilization factor)” value worked out at 8.9.

As to `O=Cc1ccc(-n2ccnc2-c2ccc(F)cc2)cc1Br` [Compound 13], the “SF250μM (stabilization factor)” value is reported as 33.

In the case of `Cc1ccc(-c2nccn2-c2ccc(C=O)c(Br)c2)cc1` [Compound 11], the “SF250μM (stabilization factor)” value stood at 29.

With `O=Cc1ccc(-n2ccnc2-c2ccccc2)cc1Br` [Compound 1], the “SF250μM (stabilization factor)” value turned out to be 23.

Take `O=Cc1ccc(-n2ccnc2-c2ccc(C(F)(F)F)cc2)cc1Br` [Compound 20]: the “SF250μM (stabilization factor)” value is 13.

For the molecule `N#Cc1ccc(-c2nccn2-c2ccc(C=O)c(Br)c2)cc1` [Compound 22], the “SF250μM (stabilization factor)” value came out at 34.

The same assay, now with this note: screening hits.
For the molecule `O=Cc1ccc(-n2ccnc2-c2ccccc2)cc1Br` [Compound 1], the “stabilization of the 14-3-3ζ/Tau pS2 peptide complex” value turned out to be 23 fold.

Values taken from article PMC11892739, “Site-specific molecular glues for the 14-3-3/Tau pS214 protein–protein interaction via reversible covalent imine tethering” (RSC Medicinal Chemistry, 2025).
